# Experimental data as given in publication PMC2947195 (Biochemical Journal, 2010).
# Residue numbers refer to the chain shown, from its start. Where two headings read alike, the source gives them in different places.
# How the values were obtained:
# Test in all cases: Competitive inhibition of [3H]MTX uptake
# Format in all cases: cell-based
# S313A hRFC = molecular target: T1, S313A hRFC (Homo sapiens, UniProt P41440, S313A)
# T1 sequence (P41440 1-591 S313A): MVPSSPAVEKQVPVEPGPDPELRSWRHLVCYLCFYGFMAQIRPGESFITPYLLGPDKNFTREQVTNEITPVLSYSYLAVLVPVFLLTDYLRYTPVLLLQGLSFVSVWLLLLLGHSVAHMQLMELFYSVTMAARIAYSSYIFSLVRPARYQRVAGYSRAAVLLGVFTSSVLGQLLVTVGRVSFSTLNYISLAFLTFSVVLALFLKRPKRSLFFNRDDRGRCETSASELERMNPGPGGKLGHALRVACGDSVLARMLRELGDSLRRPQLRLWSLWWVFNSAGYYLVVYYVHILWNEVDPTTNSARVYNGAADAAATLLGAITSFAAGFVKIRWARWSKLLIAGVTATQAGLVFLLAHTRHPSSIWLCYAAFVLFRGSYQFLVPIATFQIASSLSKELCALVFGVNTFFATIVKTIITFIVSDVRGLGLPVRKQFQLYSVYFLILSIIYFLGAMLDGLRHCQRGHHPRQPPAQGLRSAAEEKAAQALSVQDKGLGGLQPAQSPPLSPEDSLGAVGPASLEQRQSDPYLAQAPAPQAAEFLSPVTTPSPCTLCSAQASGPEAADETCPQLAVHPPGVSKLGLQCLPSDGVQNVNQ
# wt hRFC = molecular target: T2, wt hRFC (Homo sapiens, UniProt P41440)
# T2 sequence (P41440 1-591): T1 sequence (P41440 1-591 S313A) with A313S
# S313T hRFC = molecular target: T3, S313T hRFC (Homo sapiens, UniProt P41440, S313T); details: for decrease of Ki compared with wt hRFC: S313T hRFC versus wt hRFC
# T3 sequence (P41440 1-591 S313T): T1 sequence (P41440 1-591 S313A) with A313T
SMILES,Ki (S313A hRFC) [µM],decrease of Ki compared with wt hRFC (S313A hRFC; S313A hRFC versus wt hRFC),Ki (wt hRFC) [µM],Ki (S313T hRFC) [µM],decrease of Ki compared with wt hRFC (S313T hRFC),increase of Ki compared with wt carrier (S313A hRFC; S313A hRFC versus wt hRFC),"Ki (S313A hRFC; S313A hRFC, inhibition of [3H]MTX (1 μM) uptake, Dixon plots, mean±S.E.M., n=3) [µM]","Ki (wt hRFC; wt hRFC, inhibition of [3H]MTX (1 μM) uptake, Dixon plots, mean±S.E.M., n=3) [µM]","Ki (S313T hRFC; S313T hRFC, inhibition of [3H]MTX (1 μM) uptake, Dixon plots, mean±S.E.M., n=3) [µM]"
"Nc1nc(N)c2nc(CNc3ccc(C(=O)N[C@@H](CCC(=O)O)C(=O)O)cc3)cnc2n1 [Aminopterin, aminopterin]",3.43 ± 0.58,2–3 fold,7.03 ± 0.02,2.75 ± 0.15,2–3 fold,–,–,–,–
"CCC(Cc1cnc2nc(N)nc(N)c2n1)c1ccc(C(=O)N[C@@H](CCC(=O)O)C(=O)O)cc1 (stereo partly drawn) [Edatrexate, 10-ethyl-10-deazaaminopterin]",4.25 ± 0.53,–,5.48 ± 1.1,2.23 ± 0.38,–,–,–,–,–
"Nc1nc(=O)c2nc(CNc3ccc(C(=O)N[C@@H](CCC(=O)O)C(=O)O)cc3)cnc2[nH]1 [Folic acid, folic acid]",435 ± 82.7,–,194 ± 5.45,237 ± 58.4,–,~ 2 fold,–,–,–
"Cc1nc2ccc3ccc(CNc4ccc5c(c4)CN([C@@H](CCC(=O)O)C(=O)O)C5=O)cc3c2c(=O)[nH]1 [GW1843U89, (S)-2-[5-({[1,2-dihydro-3-methyl-1-oxo-benzo(f)quinazolin-9-yl]methyl}amino)1-oxo-2-isoindolinyl] glutaric acid]",2.61 ± 0.5,–,2.1 ± 0.01,0.75 ± 0.06,2–3 fold,–,–,–,–
"Nc1nc2c(c(=O)[nH]1)N(C=O)C(CNc1ccc(C(=O)N[C@@H](CCC(=O)O)C(=O)O)cc1)CN2 (stereo partly drawn) [Leucovorin, (6R,S)-5-formyl tetrahydrofolate]",12.3 ± 0.88,2–3 fold,18.7 ± 1.54,7.74 ± 0.66,2–3 fold,–,–,–,–
"Nc1nc(N)c2nc(CNc3ccc(C(=O)N[C@@H](CCCNC(=O)c4ccccc4C(=O)O)C(=O)O)cc3)cnc2n1 [PT523, N^α-(4-amino-4-deoxypteroyl)-N^δ-hemiphthaloyl-L-ornithine]",–,–,–,–,–,–,3.13 ± 0.17,4.56 ± 0.97,2.86 ± 0.85
"Nc1nc2[nH]cc(CCc3ccc(C(=O)N[C@@H](CCC(=O)O)C(=O)O)cc3)c2c(=O)[nH]1 [Pemetrexed, N-{4-[2(2-amino-3,4-dihydro-4-oxo-7H-pyrrolo[2,3-d]pyrimidin-5-yl)ethyl]benzoyl}-L-glutamic acid]",–,2–3 fold,–,–,2–3 fold,–,–,–,–
"Cc1nc2ccc(CN(C)c3ccc(C(=O)N[C@@H](CCC(=O)O)C(=O)O)s3)cc2c(=O)[nH]1 [Raltitrexed, N-{5-[N-(3,4-dihydro-2methyl-4-oxyquinazolin-6-ylmethyl)-N-methyl-amino]-2-thienoyl}-L-glutamic acid]",–,–,–,–,2–3 fold,–,–,–,–
"C#CCN(Cc1cc2c(=O)[nH]c(C)nc2cc1C)c1ccc(C(=O)N[C@@H](CCc2nnn[nH]2)C(=O)O)c(F)c1 [ZD9331, (2S)-2-{O-fluoro-p-[N-(2,7dimethyl-4-oxo-3,4-dihydro-quinazolin-6-ylmethyl)-N-(prop-2ynyl)amino]benzamido}-4-(tetrazol-5-yl)-butyric acid]",2.96 ± 0.52,–,4.42 ± 0.93,2.31 ± 0.18,–,–,–,–,–
